# Data as given in patent US20080051454A1, “Compositions and methods for transient receptor potential vanilloid (TRPV) channel mediated treatments” (The Board of Trustees Operating Michigan State University, priority 2006, published 2008).
# Legend:
# [1] = test system: Wistar rats fed a NS or HS diet for 10 days; assay: MAP responses to i.v. capsaicin with or without CAPZ in urethane-anesthetized rats; format: in vivo, rat
# Method: Surgical Preparation Rats were anesthetized with ketamine and xylazine (80 and 4 mg/kg intraperitoneally, respectively) for cannulation or with urethane (1.5 g/kg intraperitoneally) for capsaicin administration. The left jugular vein, carotid and femoral artery were cannulated under anesthesia for injection of drugs or monitoring of mean arterial pressure (MAP) and heart rate (HR).
# Each dose of injection was separated by a 30-minute interval. To determine the specificity of capsaicin, CAPZ (3 mg/kg) was administered 10 minutes before capsaicin injection in a separate group.
# Wistar rats fed HS diet = assay: Blood pressure after i.v. SR141716A or CAPZ in conscious rats fed HS diet (Example I); format: in vivo, rat; conditions: 3 mg/kg iv
# Method: Experiments were approved by the Institutional Animals Care and Use Committee. Experiments were performed using male Wistar rats (Charles River Laboratory, Wilmington, Mass.). Rats (6 weeks old) were housed in the animal facility for 1 week before the experiments. Rats were then randomly assigned to a normal-sodium (NS) diet (0.4% of Na+ by weight, Harlan Teklad) or HS (4% of Na+ by weight; Harlan Teklad) for 3 weeks. Rats drank water ad libitum throughout the experiment.
# Surgical Preparation and MAP measurements: The rats were anesthetized with ketamine and xylazine (80 and 4 mg/kg intraperitoneally, respectively) for implantation of vascular catheters or with urethane ([…] intraperitoneally) throughout protocol 2. […]
# Protocol 1: Rats fed a NS or HS diet were randomly assigned to 5 groups for intravenous injection of vehicle or MethA alone or in combination with SR141716A (a CB1 receptor antagonist), CAPZ (a VR1 receptor antagonist), or the combination of the 2 (n=5 to 8). Baseline MAP and its response to the aforementioned drugs were determined 3 hours after surgery when animals were fully awake and unrestrained as described previously. […]
# renal tissues = assay: Capsaicin-induced CGRP release from renal tissues; set-up: species or system rat; conditions: capsazepine 10 mmol/l; all groups
# Excerpt: N¼5,_P<0.05 versus vehicle, capsazepine plus capsaicin and capsazepine; †P<0.001 versus capsaicin of control rats with a normal sodium diet (Con-NS) and capsaicin of control rats with a high sodium diet (Con-HS). Vehicle; capsaicin; capsazepine and capsaicin; capsazepine.
# To examine renal sensory nerve function, renal CGRP release after stimulation of the renal sensory nerves with capsaicin was examined.
# male Wistar rats = assay: Depressor effect of 20-HETE analog DSR given IV, with or without antagonists; format: in vivo, rat; conditions: DSR 1 mg/kg with CAPZ 3 mg/kg, RP67580 4 mg/kg or CGRP 8-37 3 mg/kg
# [2] = test system: Wistar rats fed a NS or HS diet for 3 weeks; assay: MAP and HR responses to bolus CAPZ in conscious rats (3-week diet); format: in vivo, rat; conditions: for peak increase in MAP: CAPZ 3 mg/kg bolus, conscious
# Excerpt: Animal Preparation: Experiments were approved by the institutional Animals Care and Use Committee. Male Wistar rats (6 weeks old, Charles River Laboratory, Wilmington, Mass.) were housed in a temperature-controlled room with a 12:12-hour light/dark cycle. Rats were selected randomly to receive either a normal-sodium diet (NS, 0.4% of Na^+ by weight) or a HS diet (HS, 4% of Na^+ by weight) for 3 weeks. The diets were purchased from Harlan Teklad. All rats drank water ad libitum throughout the experiment.
# Surgical Preparation The rats were anesthetized with ketamine and xylazine (80 and 4 mg/kg ip, respectively) for implantation of artery and vein catheters. The left jugular vein and carotid artery were cannulated for administration of drugs or for monitoring of mean arterial pressure (MAP) and heart rate (HR) with a Statham 231D pressure transducer coupled to a Gould 2400s recorder (Gould Instruments, Dayton, Ohio, USA). For conscious animal experiments, catheters were routed subcutaneously and exteriorized between the scapulae. Rats were quietly brought to home cages 3 hours after surgery, and MAP and HR were continuously recorded. Regular room light was turned on during experiments. The rats were allowed to acclimate to their surroundings for 15-30 minutes in their cages, i.e., until which time they ceased exploring the new environment and their blood pressures stabilized. Baseline MAP and HR were recorded for 15 minutes before administration of drugs (Supowit et al., 1997; Wang and Wang, 2004).
# Protocol 1: To determine whether the TRPV1 is tonically activated during HS intake, rats fed a NS or HS diet were randomly assigned to 2 groups for intravenous injection of CAPZ (3 mg/kg), a selective TRPV1 antagonist, in conscious states.
smiles,measurement,setting,value
"Oc1cc2c(cc1O)CN(C(=S)NCCc1ccc(Cl)cc1)CCC2 [CAPZ, N-[2-(4-Chlorophenyl)ethyl]-1,3,4,5-tetrahydro-7,8-dihydroxy-2H-2-benzazepine-2-carbothioamide]",capsaicin-induced decrease in MAP after CAPZ,"[1]; CAPZ 3 mg/kg before capsaicin 10 μg/kg, HS",4±1 mmHg
same,capsaicin-induced decrease in MAP after CAPZ,"[1]; CAPZ 3 mg/kg before capsaicin 10 μg/kg, NS",4±1 mmHg
same,capsaicin-induced decrease in MAP after CAPZ,"[1]; CAPZ 3 mg/kg before capsaicin 30 μg/kg, HS",6±2 mmHg
same,capsaicin-induced decrease in MAP after CAPZ,"[1]; CAPZ 3 mg/kg before capsaicin 30 μg/kg, NS",5±1 mmHg
same,duration of transient elevation in blood pressure after injection,Wistar rats fed HS diet,≤ 7 min
same,effect on capsaicin-stimulated CGRP release,renal tissues,blocked
same,DSR induced-depressor effect after antagonist,male Wistar rats,8.5±2.5 mmHg
same,peak increase in MAP,[2]; HS 3 weeks,13±3 mmHg
same,peak increase in MAP,[2]; NS 3 weeks,4±2 mmHg
same,duration of pressor action,"[2]; CAPZ 3 mg/kg, HS",6 to 7 min
same,time to peak MAP elevation after injection,"[2]; CAPZ 3 mg/kg, HS",≤ 2 min
same,change in HR,"[2]; CAPZ 3 mg/kg, NS or HS",no significant change
